Entries after “also recorded” stand apart in the source; their conditions may differ.
Key:
[1] = tested on: chicken embryos; conditions: D. G. UPSHALL, Teratology, 1972; cited from earlier work
[2] = tested on: male mice; assay: Acute toxicity, intraperitoneal (LD0, LD30, LD60, LD100); type: in vivo
Experimental: (§1) The results of toxicological and neuropsychopharmacological tests which were carried out with the products according to the invention have been summarized below. In these tests, solutions of the said products in distilled water were administered intraperitoneally in a volume of 20 ml/kg to male mice and in a volume of 5 ml/kg to male rats.

[3] = tested on: stereotypies induced by amphetamine; assay: Interaction with amphetamine (rats); type: in vivo; conditions: i.p.; amphetamine 2 mg/kg
Experimental: as §1
Amphetamine (2 mg/kg) is injected intraperitoneally into groups of 6 rats 30 minutes after the administration of CRL 41 378.

[4] = tested on: rats; assay: Overall behavior and reactivities in rats; type: in vivo; conditions: i.p.
Experimental: as §1
(§2) Groups of 3 animals are observed before and then 0.25 h, 0.50 h, 1 h, 2 h, 3 h and 24 h after the administration of CRL 41 378. The following observations are made:
(§3) Groups of 3 animals are observed before and then 0.25 h, 0.50 h, 1 h, 2 h, 3 h and 24 h after the administration of CRL 41 329.

[5] = tested on: central nervous system (CNS); assay: Neuropsychopharmacological profile (conclusions of the tests); type: in vivo, mice and rats
Experimental: as §1

[6] = tested on: mice; assay: Overall behavior and reactivities in mice; type: in vivo; conditions: i.p.
Experimental: as §1, §2, §3

[7] = tested on: mice; assay: Behavioral despair (forced immersion); type: in vivo; conditions: mice which have been forcibly immersed, i.p.
Experimental: as §1
Half an hour after they have received CRL 41 378, groups of 6 mice are placed in a beaker filled with water to a height of 6 cm. The total period of immobility between the 2nd and 6th minutes following immersion is noted.

[8] = tested on: pregnant rabbits; assay: Teratogenic effects on pregnant rabbits; type: in vivo
[9] = tested on: hypothermia, righting behavior and stereotypies induced by apomorphine; assay: Interaction with apomorphine in mice; type: in vivo; conditions: i.p.
Experimental: as §1
CRL 41 378 is administered to groups of 6 mice 30 minutes before the subcutaneous injection of 1 or 16 mg/kg of apomorphine.

[10] = tested on: mice; assay: Intergroup aggressiveness; type: in vivo; conditions: mice, i.p.
Experimental: as §1
After they have stayed for 3 weeks in the two halves of a cage divided by an opaque partition, groups of 3 mice receive CRL 41 378. Half an hour later, the two groups from the same cage are brought together by removal of the partition and the number of fights which occur in 10 minutes is noted.

[11] = tested on: mice; assay: Asphyxiant anoxia caused by gallamine triiodoethylate; type: in vivo; conditions: i.p., gallamine triiodoethylate 32 mg/kg
Experimental: as §1
Groups of 10 mice receive CRL 41 378 30 minutes before the intraperitoneal administration of 32 mg/kg of gallamine triiodoethylate (reference curarizing agent).

[12] = tested on: hypothermia induced by apomorphine; assay: Interaction with apomorphine by gastric administration; type: in vivo; conditions: Mus musculus, male mice, apomorphine 16 mg/kg s.c., read-out: dose as from which the hypothermia induced by apomorphine is opposed
Experimental: Each test product is administered gastrically to male mice, in a volume of 20 ml/kg, 0.50 h before the subcutaneous injection of 16 mg/kg of apomorphine.

[13] = tested on: mice; assay: Electric shock; type: in vivo; conditions: i.p.
Experimental: as §1
The test is performed on groups of 10 mice 30 minutes after the administration of CRL 41 378.

[14] = tested on: anesthetized dogs; assay: Cardiovascular study in anesthetized dogs; type: in vivo; conditions: intraduodenal
[15] = tested on: mice; assay: Motility reduced by hypoxic aggression (acute hypobaric anoxia); type: in vivo; conditions: i.p.
Experimental: In these tests, solutions of the said products in distilled water were administered intraperitoneally in a volume of 20 ml/kg to male mice and in a volume of 5 ml/kg to male rats.

[16] = tested on: trembling and head twitches induced by 5-hydroxytryptophan (5-HTP); assay: Interaction with 5-hydroxytryptophan in association with an MAOI (nialamide); type: in vivo, male mice
Experimental: The purpose of the procedure used is to investigate the activity of each product according to the invention as regards the trembling induced by 5-hydroxytryptophan (5-HTP) in association with an MAOI (in this case nialamide).
Each test product, in solution in distilled water, is administered intraperitoneally in a volume of 20 ml/kg to male mice.
Groups of 10 mice receive nialamide (20 mg/kg, administered gastrically) at time T-18 h, each test product at time T-0.5 h and then (±)-5-HTP (20 mg/kg, administered intraperitoneally) at time T. Immediately after the injection of the (±)-5-HTP, the mice are individually placed in transparent plastic boxes. The generalized trembling, the partial trembling and the head twitches are noted on a yes/no basis for 2 h.

[17] = tested on: depressions and depressive states; assay: Clinical trials in depression and depressive states; type: in vivo, human; conditions: daily oral administration to adults
Experimental: The clinical trials which have been undertaken have made it possible to determine that the daily dose to be administered orally to adults, in the treatment of depressions and depressive states, is generally between 3 and 120 mg for the products of the formulae Ia and Ib according to the invention.

[18] = tested on: anesthetized dogs; assay: Cardiovascular study in anesthetized dogs; type: in vivo
Experimental: Groups of 2 adult dogs (each weighing 10 to 18 kg), anesthetized with nembutal, receive each test product (i) by intraduodenal administration at successive doses of 0.1 mg/kg, 0.5 mg/kg, 1 mg/kg, 2.5 mg/kg, 5 mg/kb, 10 mg/kg and 20 mg/kg, and then (ii) if appropriate, by intravenous administration at a dose of 10 mg/kg. The effects of 10 μg/kg of isoprenaline and/or 2 μg/kg of norepinephrine after the intraduodenal administration of a cumulative dose of 39.1 mg/kg are also assessed.
The following are measured: the total arterial blood pressure, the diastolic arterial blood pressure, the heart rate, the blood flows through the femoral and cerebral arteries and saphenous veins, the rectal temperature, the skin temperature and the pressure of the gases (essentially O2) dissolved in the arterial blood.

[19] = tested on: hypothermia, trembling and peripheral cholinergic symptoms induced by oxotremorine; assay: Interaction with oxotremorine; type: in vivo; conditions: mice, i.p.; oxotremorine 0.5 mg/kg
Experimental: as §1
CRL 41 378 is administered to groups of 6 mice 0.5 h before the intraperitoneal injection of 0.5 mg/kg of oxotremorine.

[20] = tested on: hypothermia and ptosis induced by reserpine; assay: Interaction with reserpine; type: in vivo; conditions: mice, i.p.; reserpine 2.5 mg/kg
Experimental: as §1
Four hours after the intraperitoneal injection of 2.5 mg/kg of reserpine, groups of 12 mice receive CRL 41 378.

[21] = i.p., nialamide + (±)-5-HTP, male mice

c1ccc(C2=NCCCN2)cc1 [compound No. 2]
teratogenic effect [1]: teratogenic

CC1(C)NCC(O)(c2ccccc2)CN1 [CRL 41 365, 2,2-dimethyl-5-hydroxy-5-phenyl-1,2,3,4,5,6-hexahydropyrimidine]
LD0 (maximum non-lethal dose) ([2]; intraperitoneal): greater than 512 mg/kg
action on stereotypies induced by amphetamine [3]: at all the doses studied, this product potentiates the stereotypies induced by amphetamine
overall behavior and reactivities ([4]; 8 mg/kg): no distinct modification of the behavior and reactivities compared with the control animals
overall behavior and reactivities ([4]; 32 mg/kg): sedation and a decrease in the breathing rate for 1 h; also recorded: a decrease in the reactivity to touch for 0.5 h
overall behavior and reactivities ([4]; 128 mg/kg): sedation and a decrease in the breathing rate for 3 h; also recorded: a decrease in the reactivity to touch for 1 h
sedative effects ([5]; i.p.): sedation with a decrease in the reactivities in rats and mice, hypothermia in mice
overall neuropsychopharmacological profile ([5]; summary): essentially a sedative
overall behavior and reactivities ([6]; 256 mg/kg): sedation, for 1 h; also recorded: a decrease in the heart rate for 1 h; also recorded: a decrease in the reactivity to touch for 0.5 h; also recorded: hypothermia for 3 h
hypothermia, maximum intensity ([6]; 256 mg/kg, 0.5 h after administration): -1.6 °C
overall behavior and reactivities ([6]; 16 and 64 mg/kg): no distinct modification of the behavior and reactivities compared with the control animals
period of immobility [7]: a very moderate decrease in the period of immobility of mice which have been forcibly immersed

Cl.Fc1ccccc1C1CN=CNC1 (centres unmarked) [CRL 41 329, 5-(2-fluorophenyl)-1,4,5,6-tetrahydropyrimidine hydrochloride]
toxic signs in the animals treated ([2]; 64 mg/kg i.p.): all the animals treated exhibit salivation, sedation and vasodilation of the tail
toxic signs in the animals treated ([2]; 128 mg/kg i.p.): all the animals have asphyxiant convulsions
LD0 (maximum non-lethal dose) ([2]; intraperitoneal): greater than 64 mg/kg
LD100 (minimum dose lethal to all the animals) ([2]; intraperitoneal): ~128 mg/kg
action on stereotypies induced by amphetamine [3]: potentiates the stereotypies induced by amphetamine
overall behavior and reactivities ([4]; 0.25 mg/kg): moderate mydriasis for 3 h
overall behavior and reactivities ([4]; 1 mg/kg): significant mydriasis for 3 h
overall behavior and reactivities ([4]; 4 mg/kg, hydrochloride): sedation (3/3) for 2 h; also recorded: a decrease in the reactivity to touch and the muscle tone; also recorded: piloerection (1/3) for 1 h; also recorded: significant mydriasis for at least 3 h (mydriasis still being apparent 24 h after administration)
overall behavior and reactivities ([4]; 16 mg/kg, hydrochloride): sedation (3/3) for 3 h; also recorded: a decrease in the reactivity to touch and the muscle tone; also recorded: significant mydriasis for 3 h (the mydriasis still being apparent 24 h after administration)
teratogenic effects [8]: devoid of harmful teratogenic effects on pregnant rabbits
action on hypothermia induced by apomorphine [9]: significant antagonism of the hypothermia induced by apomorphine, oxotremorine and reserpine
intergroup aggressiveness (number of fights) [10]: a decrease in the intergroup aggressiveness in mice
time taken for convulsions and death / lethal effects of gallamine triiodoethylate [11]: aggravation of the lethal effects of electric shock and gallamine triiodoethylate in mice
antidepressant effects ([5]; i.p.): antidepressant effects appearing at all the doses used
peripheral α-adrenergic stimulant effects ([5]; i.p.): modest effects capable of reflecting peripheral α-adrenergic stimulation
sedative effects ([5]; i.p., hydrochloride): sedative effects appearing at high doses; also recorded: sedation with hypomotility; also recorded: low-intensity transient hypothermia
minimal effective dose [12]: ≥ 0.25 mg/kg
lethal effects of electric shock [13]: aggravation of the lethal effects of electric shock and gallamine triiodoethylate in mice
overall behavior and reactivities ([6]; 0.5 mg/kg): moderate mydriasis for 2 h
overall behavior and reactivities ([6]; 2 mg/kg, hydrochloride): sedation (2 out of 3 animals) for 0.5 h; also recorded: moderate and brief mydriasis for 0.5 h
overall behavior and reactivities ([6]; 8 mg/kg, hydrochloride): sedation (2 out of 3 animals) for 0.5 h; also recorded: weak and brief mydriasis for 0.5 h
overall behavior and reactivities ([6]; 32 mg/kg): sedation (3/3) 0.25 h after administration, then (2/3) 0.5 h after administration
blood flows through the femoral and vertebral arteries [14]: decreases the blood flows in the femoral and vertebral arteries
period of immobility [7]: no decrease in the period of immobility due to "despair"
motor recovery after acute hypobaric hypoxia [15]: a decrease in the motor recovery after hypoxic aggression
analogy with β-adrenergic stimulants in the 5-HTP procedure ([16]; 5-HTP + MAOI): effects analogous to those of isoprenaline
intensity of potentiation of 5-HTP effects ([16]; higher doses, 5-HTP + MAOI, male mice): the potentiation being very intense at the doses of 8 to 32 mg/kg
head twitches [16, 21]: distinctly potentiate the partial trembling and the head twitches
partial trembling [16, 21]: distinctly potentiate the partial trembling and the head twitches
results in human therapy (depression) [17]: excellent results
rectal temperature [18]: increases the rectal temperature
skin temperature [18]: increases the rectal temperature and skin temperature
arterial blood pressure ([18]; intraduodenal): tends to increase the arterial blood pressure
heart rate ([18]; intraduodenal): decrease the heart rate
mydriasis and salivation ([18]; intraduodenal): causes mydriasis and substantial salivation
respiratory arrhythmia ([18]; intraduodenal): causing respiratory arrhythmia
effects of isoprenaline ([18]; isoprenaline 10 μg/kg): does not cause a distinct modification of the effects of isoprenaline on the diastolic arterial blood pressure and the heart rate
hypertension induced by norepinephrine ([18]; norepinephrine 2 μg/kg): decreases the hypertension induced by norepinephrine
action on hypothermia induced by oxotremorine [19]: significant antagonism of the hypothermia induced by apomorphine, oxotremorine and reserpine
action on hypothermia induced by reserpine [20]: significant antagonism of the hypothermia induced by apomorphine, oxotremorine and reserpine

Clc1ccc(C2CCNC=N2)cc1 (centres unmarked) [compound No. 18]
teratogenic effect [1]: absence of teratogenic effects on chicken embryos
